Assay results reported in patent US9821018B2, “Composition comprising Raphanus, Theobroma and Passiflora for treating opioid and alcohol abuse” (priority 2012, dated 2017).
Counter-ions that a name gives are not always drawn.

Assays:
PTZ-induced convulsions = conditions: mice, i.p.; safranal 0.15 and 0.35 ml/kg body weight, crocin 22 mg/kg; cited from earlier work
[1] = system: morphine-induced place preference; conditions: i.p.; extract 10, 50 and 100 mg/kg, safranal 1, 5 and 10 mg/kg; cited from earlier work
brain serotonin = brain serotonin concentration by ELISA; assay type: in vivo, Male Wistar rats; conditions: i.p., 30 min after injection; fluoxetine 10 mg/kg, desipramine 50 mg/kg, Raphanus extract 2-256 mg/kg; vs saline
Method: (§1) Male Wistar rats (250-300 g, Amman-Jordan) were used throughout the study (8 rats for each experiment). Animals were housed in groups of 4/cage in a 12/12 h light-cycle (lights on at 07.00 a.m.), with ad-lib food and water available. The animals were randomly allocated to different groups of the experiment. All experiments were conducted in accordance with standard ethical guidelines and approved by the local ethical Committee University of Medical Committee on the Use and Care of Animals, 81/021, Jul. 10, 2011 (Petra University, Amman, Jordan)).
(§2) Fluoxetine hydrochloride [N-methyl-3-[(4-trifluoromethyl) phenoxy]-3-phenylpropylamine hydrochloride] and desipramine hydrochloride [10-11-dihydro-N-methyl-5H-dibenz (Z) [b, f] azepine-5-propanamine hydrochloride] (TOCRIS Bioscience, UK) were dissolved in sterile saline and administered intraperitoneally at a concentration of 1 ml/kg; the extract was prepared immediately before use. The control groups were administered saline.
(§3) The Raphanus sativus extract used was prepared in Jordan. To prepare the extract, 100 g of dried and milled […] was extracted with 1000 ml distilled water by maceration. […] The extract was dissolved in normal saline and immediately administered to the animals. […]

brain dopamine = brain dopamine concentration by ELISA; assay type: in vivo, Male Wistar rats; conditions: i.p., 30 min after injection; fluoxetine 10 mg/kg, desipramine 50 mg/kg, Raphanus extract up to 256 mg/kg (most potent)
Method: as §1, §2, §3

SMILES	anticonvulsant activity (PTZ-induced convulsions)	acquisition and expression of morphine CPP [1]	brain serotonin levels (brain serotonin)	dopamine concentration in the brain (brain dopamine)
CC(/C=C/C=C(\C)C(=O)O[C@@H]1O[C@H](CO[C@@H]2O[C@H](CO)[C@@H](O)[C@H](O)[C@H]2O)[C@@H](O)[C@H](O)[C@H]1O)=C\C=C\C=C(C)\C=C\C=C(/C)C(=O)O[C@@H]1O[C@H](CO[C@@H]2O[C@H](CO)[C@@H](O)[C@H](O)[C@H]2O)[C@@H](O)[C@H](O)[C@H]1O [Crocin, crocin]	did not show anticonvulsant activity			
CC1=C(C=O)C(C)(C)CC=C1 [Safranal, safranal]	reduced the seizure duration, delayed the onset of tonic convulsions, and protected mice from death	The same results were obtained		
CNCCCN1c2ccccc2CCc2ccccc21 [desipramine, 10-11-dihydro-N-methyl-5H-dibenz (Z) [b, f] azepine-5-propanamine hydrochloride]			neither desipramine nor Raphanus extract can increase brain serotonin levels	can increase dopamine concentration in the brain
CNCCC(Oc1ccc(C(F)(F)F)cc1)c1ccccc1 (stereo not shown) [fluoxetine, N-methyl-3-[(4-trifluoromethyl)phenoxy]-3-phenylpropylamine hydrochloride]			can increase brain serotonin levels significantly	can increase dopamine concentration in the brain
